Assay results as given in patent US7943638B2, “Carboxamide compound and use of the same” (Sumitomo Chemical Company, Limited, priority 2005, dated 2011).

System: wheat scab (Fusarium culmorum)
Test: Wheat scab (Fusarium culmorum) controlling effect test (preventive effect)
Assay type: in vivo
Details: 500 ppm flowable preparation, foliage spray on wheat (Shirogane komugi), 23° C. high humidity 4 days, then 23° C. greenhouse 3 days
Method: A plastic pot was charged with a sand loam, and a wheat (Name of plant variety: Shirogane komugi) was seeded, and was grown for 8 days in a greenhouse. Each flowable preparation of the present compound 4 which had been obtained according to Preparation Example 6 was diluted with water to a predetermined concentration (500 ppm) to prepare a spraying solution. Each spraying solution was foliage-sprayed so that the solution was sufficiently adhered to the above adhered to wheat leaves. After spraying, the wheat was air-dried to an extent that the spraying solution on the leaves was dried, then a spore suspension of wheat scab (Fusarium culmorum) (containing about 2000000 spores per 1 ml of the suspension) was spraying-inoculated (at a ratio of about 2 ml per one plant). After inoculation, the wheat was placed at 23° C. under high humidity for 4 days, then placed in a 23° C. greenhouse for 3 days. Thereafter, the controlling effect was investigated.
As a result, an area of a lesion in a plant treated with the present compound 4 was 10% or less of an area of a lesion in a non-treated plant.

With `Cc1cc(O)c(C(=O)Nc2cccnc2)c(=O)n1C` [present compound 4, N-(3-pyridyl)-1,6-dimethyl-4-hydroxy-2-oxo-1,2-dihydropyridine-3-carboxamide] the “area of a lesion in a treated plant relative to area of a lesion in a non-treated plant” value was at most 10%.
